From US20160137639A1, “TRIAZOLE-ISOXAZOLE COMPOUND AND MEDICAL USE THEREOF” (JAPAN TOBACCO INC., priority 2012, published 2016)
Where two headings read alike, the source gives them in different places.

Key:
human RORγ = biological target: T1, human RORγ (Homo sapiens, UniProt P51449); experiment: Luciferase reporter gene assay of inhibitory effect against RORγ transcriptional activity (GAL4-hRORγ plasmid in CHO cells); type: cell-based
T1 construct: human, NM_005060.3 and from Ser253 to Lys518; expressed in transfected cells; host or cells: CHO cells (transient co-transfection with pG5-Luc reporter)
T1 sequence (P51449 253-518): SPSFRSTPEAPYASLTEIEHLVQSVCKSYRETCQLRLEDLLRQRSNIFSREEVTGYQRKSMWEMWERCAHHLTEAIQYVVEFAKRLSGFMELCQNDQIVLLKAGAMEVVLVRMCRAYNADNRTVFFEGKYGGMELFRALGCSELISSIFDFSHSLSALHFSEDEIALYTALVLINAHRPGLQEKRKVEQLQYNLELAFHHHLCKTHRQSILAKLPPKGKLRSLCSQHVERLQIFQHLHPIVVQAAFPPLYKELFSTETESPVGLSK

mouse RORγ = biological target: T2, mouse RORγ (Mus musculus, UniProt P51450); experiment: Luciferase reporter gene assay of inhibitory effect against RORγ transcriptional activity (GAL4-mRORγ plasmid in CHO cells); type: cell-based
T2 construct: mouse, NM_011281.2 and from Ile251 to Lys516; expressed in transfected cells; host or cells: CHO cells (transient co-transfection with pG5-Luc reporter)
T2 sequence (P51450 251-516): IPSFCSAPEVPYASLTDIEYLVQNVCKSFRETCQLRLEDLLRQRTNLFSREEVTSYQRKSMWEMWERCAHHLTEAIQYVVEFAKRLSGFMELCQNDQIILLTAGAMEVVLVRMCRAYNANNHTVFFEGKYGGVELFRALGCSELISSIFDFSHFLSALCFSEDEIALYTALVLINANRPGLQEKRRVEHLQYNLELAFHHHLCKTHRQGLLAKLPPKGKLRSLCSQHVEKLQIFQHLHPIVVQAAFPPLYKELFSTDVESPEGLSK
Procedure, shortened: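 CHO cells transiently co-transfected with GAL4-mouse RORγ LBD (Ile251–Lys516) and GAL4-dependent luciferase reporter; eight compound concentrations, 0.1% DMSO, 2 days at 37 °C. Luminescence as %-of-vehicle control; EC50 by curve fit, cytotoxic concentrations excluded.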

Row | SMILES | EC50 (human RORγ; read-out: LUC EC50 hRORg) [µM] | EC50 (mouse RORγ; read-out: LUC EC50 mRORg) [µM] | EC50 (human RORγ; read-out: LUC EC50 (μM) hRORg) [µM] | EC50 (mouse RORγ; read-out: LUC EC50 (μM) mRORg) [µM]
1 | Cc1ccc(NC(=O)[C@H]2CN(C(=O)N3CCN(C)CC3)C[C@@H]2c2nnc([C@H]3C[C@@H](CC(C)(C)C)C3)n2C2CC2)c(C)c1 [Example F-651] | < 3 | < 3 |  | 
2 | CCn1c(C(O)CC(=O)Nc2cccc3ccccc23)nnc1C1Cc2ccccc2C1 (racemic) [Example F-34] |  |  | > 3 | > 3
3 | CC(=O)N1C[C@H](C(=O)Nc2ccc(C)cc2C)[C@@H](c2nnc(-c3cc(C(C)C)on3)n2C2CC2)C1 (racemic) [Example F-350] |  |  | < 3 | < 3
4 | Cc1ccc(NC(=O)CC(CC(C)C)c2nnc(CCCC(C)(C)C)n2C2CC2)c(C)c1 (racemic) [Example F-438] |  |  | < 3 | < 3
5 | Cc1ccc(NC(=O)C[C@@H](c2nnc(CCCC(C)(C)C)n2C2CC2)N2CCCC2=O)c(C)c1 [Example F-403] |  |  | < 3 | < 3
6 | CC(C)C[C@H]1C[C@@H](c2nnc([C@@H](CCO)CC(=O)Nc3ccc(F)cc3Cl)n2C2CC2)C1 [Example F-513] | < 3 | < 3 |  | 
7 | Cc1ccc(NC(=O)C[C@H](CCC(=O)O)c2noc(-c3cc(C(C)(C)C)on3)c2C2CC2)c(Cl)c1 [Example E-43] |  |  | < 3 | < 3
8 | COc1cc(C)ccc1CNC(=O)[C@H]1CCN(C(C)=O)[C@@H]1c1nnc(CCC2CCCCC2)n1C1CC1 [Example F-228] |  |  | < 3 | < 3
9 | COc1cc(C)ccc1CNC(=O)CC(CCO)c1nnc(CCC(C)C)n1C1CC1 (racemic) [Example F-176] |  |  | > 3 | > 3
10 | CC(=O)N1C[C@H](C(=O)Nc2ccc(Cl)cc2C)[C@@H](c2nnc([C@H]3C[C@@H](CC(C)C)C3)n2C2CC2)C1 [Example F-603] | < 3 | < 3 |  | 
11 | Cc1ccc(NC(=O)C[C@H](CC(=O)O)c2noc([C@H]3C[C@@H](CC(C)C)C3)c2C2CC2)cn1 [Example F-667] | > 3 | < 3 |  | 
12 | Cc1ccc(NC(=O)CC(CCC(=O)O)c2nnc(CCCC(C)C)n2C2CC2)c(C)c1 (racemic) [Example F-283] |  |  | > 3 | > 3
13 | Cc1ccc(NC(=O)CCc2nnc(CCC(C)(C)C)n2C2CC2)c(C)c1 [Example F-69] |  |  | > 3 | < 3
14 | Cc1ccc(NC(=O)C[C@H](CCC(=O)O)c2noc(-c3cc(C(F)(F)C(C)(C)C)on3)c2C2CC2)c(F)c1 [Example E-46] |  |  | < 3 | < 3
15 | Cc1ccc(NC(=O)C[C@H](CCC(=O)O)c2noc(-c3ncc(CC(C)C)o3)c2C2CC2)c(Cl)c1 [Example E-18] |  |  | < 3 | < 3
16 | CC(=O)N1C[C@H](C(=O)Nc2ccc(C)cc2C)[C@@H](c2nnc(C3CN(C(=O)OC(C)(C)C)C3)n2C2CC2)C1 (racemic) [Example F-416] |  |  | > 3 | > 3
17 | Cc1ccc(NC(=O)C[C@H](CCCO)c2noc(-c3cn(CCC(C)(C)C)nc3C(F)(F)F)c2C2CC2)c(F)c1 [Example F-705] | > 3 | > 3 |  | 
18 | Cc1cc(F)ccc1NC(=O)C[C@H](CC(=O)NS(C)(=O)=O)c1noc([C@H]2C[C@@H](CC(C)C)C2)c1C1CC1 [Example F-637] | < 3 | < 3 |  | 
19 | Cc1ccc(NC(=O)[C@H]2CN(C)C[C@@H]2c2nnc(-c3cc(CC(C)C)on3)n2C2CC2)c(C)c1 [Example F-618] | < 3 | < 3 |  | 
20 | CC(C)C[C@H]1C[C@@H](c2nnc([C@@H](CCO)CC(=O)Nc3ccc(Cl)cc3F)n2C2CC2)C1 [Example F-519] | < 3 | < 3 |  | 
21 | Cc1cc(F)ccc1NC(=O)C[C@H](CC(C)C)c1nnc(-c2cc(CC(C)C)on2)n1C1CC1 [Example F-607] | < 3 | < 3 |  | 
22 | Cc1ccc(NC(=O)C[C@H](CC(=O)O)c2noc(-c3cc(C(F)(F)C(C)(C)C)on3)c2C2CC2)c(Cl)c1 [Example E-53, Sodium (R)-4-(2-chloro-4-methyl-phenylcarbamoyl)-3-[4′-cyclopropyl-5-(1,1-difluoro-2,2-dimethylpropyl)-[3,5′]biisoxazolyl-3′-yl]-butyrate] |  |  | < 3 | < 3
23 | CNC(=O)[C@H]1CC[C@H](CCc2nnc(CCC(=O)Nc3cccc(Cl)c3C)n2C2CC2)CC1 [Example F-255] |  |  | > 3 | > 3
24 | Cc1c(Cl)cccc1NC(=O)CC(CCN1C(=O)c2ccccc2C1=O)c1nnc(CCCC(C)C)n1C1CC1 (racemic) [Example F-224] |  |  | < 3 | < 3

Row | SMILES | EC50 (human RORγ; read-out: LUC EC50 hRORg) [µM] | EC50 (mouse RORγ; read-out: LUC EC50 mRORg) [µM] | EC50 (human RORγ; read-out: LUC EC50 (μM) hRORg) [µM] | EC50 (mouse RORγ; read-out: LUC EC50 (μM) mRORg) [µM]
25 | C=CCC(CC(=O)Nc1ccc(C)cc1C)c1nnc(CCCC(C)(C)C)n1C1CC1 (racemic) [Example F-306] |  |  | < 3 | < 3
26 | Cc1ccc(NC(=O)CC(CC(N)=O)c2nnc(CCCC(C)C)n2C2CC2)c(C)c1 (racemic) [Example F-253] |  |  | > 3 | > 3
27 | Cc1ccc(NC(=O)C[C@H](CCC(=O)O)c2nnc([C@H]3C[C@@H](CC(C)(C)C(C)C)C3)n2C2CC2(F)F)c(Cl)c1 (mixture of isomers) [Example F-714] | < 3 | < 3 |  | 
28 | Cc1ccc(NC(=O)[C@@H]2C[C@H](O)C[C@H]2c2nnc([C@H]3C[C@@H](CC(C)C)C3)n2C2CC2)c(C)c1 [Example F-471] |  |  | > 3 | > 3
29 | COC1CCC(CCc2nnc(CCC(=O)Nc3cccc(Cl)c3C)n2C2CC2)CC1 (stereo not shown) [Example F-242] |  |  | > 3 | < 3
30 | COCC(C)(C)C[C@H]1C[C@@H](c2onc([C@@H](CCC(=O)O)CC(=O)Nc3ccc(C)cc3Cl)c2C2CC2)C1 [Example F-725] | < 3 | < 3 |  | 
31 | Cc1ccc(NC(=O)[C@@H](CC(=O)O)Cc2noc([C@H]3C[C@@H](CC(C)(C)C)C3)c2C2CC2)c(Cl)c1 [Example F-677] | < 3 | < 3 |  | 
32 | O=C(O)CC[C@@H](CC(=O)Nc1ccc(Cl)cc1F)c1noc(-c2cc(C3CCCC3)on2)c1C1CC1 [Example E-59] |  |  | < 3 | < 3
33 | Cc1ccc(NC(=O)C[C@H](CCO)c2nnc(CCCC(C)(C)C)n2C2CC2)c(C)c1 [Example F-327] |  |  | < 3 | < 3
34 | Cc1ccc(NC(=O)C(CC(=O)O)Cc2noc([C@H]3C[C@@H](CC(C)C)C3)c2C2CC2)c(C)c1 (stereo partly shown) [Example F-666] | > 3 | < 3 |  | 
35 | Cc1ccc(NC(=O)CCc2noc(C34CC5CC(CC(C5)C3)C4)c2C2CC2)c(Cl)c1 [Example F-734] | < 3 | < 3 |  | 
36 | CNC(=O)C(C)(C)C[C@H]1C[C@@H](c2onc([C@@H](CCC(=O)O)CC(=O)Nc3ccc(C)cc3Cl)c2C2CC2)C1 [Example F-728] | < 3 | < 3 |  | 
37 | Cc1ccc(NC(=O)C[C@H](CCO)c2nnc([C@H]3C[C@@H](CC(F)(F)F)C3)n2C2CC2)c(C)c1 [Example F-587] | < 3 | < 3 |  | 
38 | Cc1ccc(NC(=O)C[C@H](CCC(=O)O)c2nnn([C@H]3C[C@@H](CC(C)(C)C(C)C)C3)c2C(F)(F)F)c(F)c1 [Example F-707] | < 3 | < 3 |  | 
39 | Cc1ccc(NC(=O)C[C@H](CCCO)c2nnn([C@H]3C[C@@H](CC(C)(C)C(C)C)C3)c2C2CC2)c(F)c1 [Example F-709] | < 3 | < 3 |  | 
40 | Cc1ccc(NC(=O)C[C@H](CCC(=O)O)c2noc(-c3cc(C(F)(F)C(C)C)on3)c2C2CC2)c(Cl)c1 [Example E-20] |  |  | < 3 | < 3
41 | CC(=O)N1C[C@H](C(=O)Nc2ccc(C)cc2C)[C@@H](c2nnc([C@H]3C[C@H](c4ccccc4)C3)n2C2CC2)C1 (racemic) [Example F-345] |  |  | < 3 | < 3
42 | Cc1ccc(NC(=O)C[C@H](OCC(F)(F)F)c2nnc(-c3cc(CC(C)C)on3)n2C2CC2)c(C)c1 [Example F-629] | < 3 | < 3 |  | 
43 | CC(=O)N1C[C@H](C(=O)Nc2ccc(C)cc2C)[C@@H](c2nnc(C3CC4(CCCCC4)C3)n2C2CC2)C1 [Example F-473] |  |  | < 3 | < 3
44 | Cc1ccc(NC(=O)C[C@H](CCC(=O)O)c2noc(-c3cc(CC(C)C)no3)c2C2CC2)c(Cl)c1 [Example E-04, (S)-5-(2-chloro-4-methyl-phenylcarbamoyl)-4-(4-cyclopropyl-3′-isobutyl-[5,5′]biisoxazolyl-3-yl)-pentanoic acid] |  |  | < 3 | < 3
45 | Cc1c(Cl)cccc1NC(=O)CCc1nnc(CC(C)C(C)C)n1C1CC1 (racemic) [Example F-117] |  |  | > 3 | < 3
46 | Cc1ccc(NC(=O)CCc2noc(C3(CC(=O)O)CC(CC(C)(C)C)C3)c2C2CC2)c(Cl)c1 (mixture of isomers) [Example F-743] | > 3 | > 3 |  | 
47 | CC(=O)N1C[C@H](C(=O)Nc2ccc(C)cc2C)[C@@H](c2nnc(CCOC(C)(C)C)n2C2CC2)C1 (racemic) [Example F-222] |  |  | > 3 | < 3
